Measured values as given in patent US20240239801A1, “PYRIMIDO[5,4,D]PYRIMIDINE COMPOUNDS, COMPOSITIONS COMPRISING THEM AND USES THEREOF” (Université de Montréal, priority 2021, published 2024).

Columns and labels:
ARAF = molecular target: T1, ARAF (Homo sapiens, UniProt P10398); assay: ARAF kinase activity assay (AlphaLISA p-MEK detection); assay type: biochemical; conditions: Table A
T1 sequence (P10398 310-570 limits assumed): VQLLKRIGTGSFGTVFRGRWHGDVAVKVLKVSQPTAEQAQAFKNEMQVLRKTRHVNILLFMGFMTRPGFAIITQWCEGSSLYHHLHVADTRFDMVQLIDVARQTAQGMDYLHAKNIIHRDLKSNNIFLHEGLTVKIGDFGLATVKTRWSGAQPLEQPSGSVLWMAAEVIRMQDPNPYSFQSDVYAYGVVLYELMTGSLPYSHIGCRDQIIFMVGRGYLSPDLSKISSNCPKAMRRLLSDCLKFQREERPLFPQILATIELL
Protocol: Compound preparation: solid samples of each substances in 1dram vials were suspended in DMSO (Fisher Scientific) at a stock concentration of 20 mM. Stocks were kept at −20° C. and protected from light. If solubility of the compound at 20 mM appeared to be an issue, the initial concentration of the DMSO stock was changed to 10 mM or 5 mM.
In vitro enzymatic reactions were used for evaluating compounds intrinsic activity against BRAF, CRAF and ARAF. For BRAF and CRAF, 0.375 nM of purified GST-tagged kinases (cat #B4062-10UG and cat #R1656-10UG respectively from Millipore Sigma) were incubated with 75 nM of kinase-dead MEK1 substrate (cat #40075; BPS Bioscience) in the presence of 10 μM of Ultrapure ATP (cat #V9102; Promega; part V915A) with and without the test compound in a buffer containing 50 mM HEPES pH 7.5, 10 mM MgCl2, 1 mM EDTA, 0.01% Brij-35 and 2 mM DTT. Separate reactions were performed with the MEK1 substrate and ATP as a blank control. ARAF, kinase reactions were rigorously the same with the exception that kinase concentration was raised to 3.75 nM (cat #1768-0000-1; Reaction Biology).
For compound treatment, 5 μL/well of test substance solution are placed in a 384-well proxyplate (Perkin Elmer) and mixed with 2× concentrated kinase reactions. The dilution series is selected so that nine concentrations cover a range from 100 nM to 0.01 nM. […] The final concentration of DMSO in the assay is set at 0.05%.
ARAF kinase reactions were carried out for a total of 2 hours at 30° C. and then stopped by addition of EDTA at a final concentration of 40 mM. Reactions were then detected using the AlphaLISA® SureFire® Ultra™ p-MEK ½ (Ser218/222) (PerkinElmer) kit. Reactions were performed with 5 μL of kinase reaction according to the manufacturer's specifications in 384-well proxyplates (Perkin Elmer) followed by overnight incubation of the reactions at room temperature in a humidified chamber. After completion of the detection reactions, the signals were recorded on a Synergy Neo2 plate reader (Biotek) equipped with AlphaLISA® filters. The effect of each compound dilution on the pMEK signal generated by ARAF reactions was expressed in % inhibition and calculated as follows. An internal 100% inhibition control (average of luminescence in kinase reactions comprising kinase dead MEK1 substrate alone) was included in each plate to measure of pMEK background and was subtracted from each data point. The average of DMSO (vehicle) controls (set as 0% inhibition) was also established and used to calculate % inhibition:
IC50 values were obtained by plotting the kinase inhibition values and fitting the dose-activity curves using a log(agonist) versus response−variable slope (four parameters) function using either GraphPadPrism (V7.0) or Dotmatics Screening Ultra platform. Standards included in the ARAF kinase assay were Belvarafenib (MedChem Express cat #HY-109080; CAS #1446113-23-0), LXH254 (MedChem Express cat #HY-112089; CAS #1800398-38-2) and BGB283 (cat #HY-18957; CAS #1446090-79-4).

CRAF = CRAF (Homo sapiens, UniProt P04049); assay: CRAF kinase activity assay (ADP-Glo); assay type: biochemical; conditions: Table 3
Summary of the method: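 CRAF inhibition was measured by ADP-Glo. 0.375 nM purified GST-tagged CRAF was combined with 75 nM kinase-dead MEK1 substrate and 10 μM ATP in 50 mM HEPES pH 7.5, 10 mM MgCl2, 1 mM EDTA, 0.01% Brij-35 and 2 mM DTT, with nine compound concentrations from 100 nM to 0.01 nM (0.05% DMSO), in 384-well plates for 2 hours at 30° C. Luminescence was read after adding ADP-Glo and Kinase Detection reagents. IC50 came from four-parameter curve fits.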

Chain of CRAF (P04049 whole entry): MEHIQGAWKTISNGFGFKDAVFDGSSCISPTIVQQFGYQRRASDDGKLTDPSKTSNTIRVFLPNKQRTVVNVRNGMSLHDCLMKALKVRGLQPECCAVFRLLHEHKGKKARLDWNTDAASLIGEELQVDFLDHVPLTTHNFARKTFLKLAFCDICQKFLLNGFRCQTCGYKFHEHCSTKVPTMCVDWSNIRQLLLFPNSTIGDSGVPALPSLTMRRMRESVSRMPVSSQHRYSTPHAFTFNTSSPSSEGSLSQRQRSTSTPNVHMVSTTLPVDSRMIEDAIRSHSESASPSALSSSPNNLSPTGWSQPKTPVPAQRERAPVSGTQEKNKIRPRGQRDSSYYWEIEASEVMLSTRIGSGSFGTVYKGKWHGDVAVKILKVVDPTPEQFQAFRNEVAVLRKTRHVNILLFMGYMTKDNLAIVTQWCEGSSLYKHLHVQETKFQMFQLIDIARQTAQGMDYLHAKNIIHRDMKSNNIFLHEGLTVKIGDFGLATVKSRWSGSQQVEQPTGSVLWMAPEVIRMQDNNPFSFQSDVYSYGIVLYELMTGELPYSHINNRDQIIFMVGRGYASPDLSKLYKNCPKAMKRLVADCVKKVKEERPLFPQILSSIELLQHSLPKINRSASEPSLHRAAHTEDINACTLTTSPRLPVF

An IC50 (ARAF) of over 20 nM was found for `Cc1ccc2c(Nc3cccc(Cl)c3F)nccc2c1NC(=O)c1csc2c(N)ncnc12` [Belvarafenib, reference compound] in this work.
An IC50 (CRAF) of under 0.01 µM was found for `Nc1cccc2c1ncn2-c1ncc2ncnc(Nc3c(F)ccc(NS(=O)(=O)c4cccc(Cl)c4Cl)c3F)c2n1` [Example 80] in this work.
An IC50 (ARAF) of 10 to 20 nM and an IC50 (CRAF) of 0.01 to 0.05 µM were found for `Cc1c(F)cccc1S(=O)(=O)Nc1ccc(F)c(Nc2ncnc3cnc(-n4cc(C(=O)N(C)Cc5ccncc5)c5ccccc54)nc23)c1F` [Example 98] in this work.
An IC50 (ARAF) of over 20 nM and an IC50 (CRAF) of 0.01 to 0.05 µM were found for `COc1ccc(S(=O)(=O)Nc2ccc(F)c(Nc3ncnc4cnc(-n5cnc6c(N)cccc65)nc34)c2F)c(C)c1Cl` [Example 112] in this work.
An IC50 (ARAF) of under 10 nM and an IC50 (CRAF) of 0.01 to 0.05 µM were found for `Cc1c(F)cccc1S(=O)(=O)Nc1ccc(F)c(Nc2ncnc3cnc(-n4cnc5c(-c6cccnc6)cccc54)nc23)c1F` [Example 114] in this work.
An IC50 (ARAF) of 10 to 20 nM and an IC50 (CRAF) of 0.01 to 0.05 µM were found for `O=S(=O)(Nc1ccc(F)c(Nc2ncnc3cnc(-n4cnc5c(N6CCC7(CCCO7)CC6)cccc54)nc23)c1F)c1cccc(Cl)c1Cl` [Example 129] in this work.
